The source of these data is US20080234262A1 (Wyeth, priority 2007, published 2008).

Broadly, the IC50 is the concentration that inhibits the measured activity by half. Read a low IC50 as higher potency.

In assay [1] the test system is breast line MDA468. Description: In vitro cell culture growth assay (MTS), MDA468. Conditions: MDA468 cells, three days after drug treatment. Type of assay: cell-based, human. Put shortly:
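MDA468 or LNCap cells received inhibitors one day after plating and were grown for three days. Viable cell density read by MTS conversion, absorbance 490 nm, expressed as percent of control growth versus vehicle-treated cells on the same plate.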

Assay [2] has as its system prostate line LNCap. Nature of the assay: In vitro cell culture growth assay (MTS), LNCap. Type of assay: cell-based, human. Conditions: LNCap cells, three days after drug treatment.

With `CC(=O)Nc1ccc(-c2nc(N3CCOCC3)c3cnn(-c4ccccc4)c3n2)cc1` [Compound 108, N-[4-(4-morpholin-4-yl-1-phenyl-1H-pyrazolo[3,4-d]pyrimidin-6-yl)phenyl]acetamide], the IC50 came out at 60000 nM in assay [1] (Homo sapiens, 72 h) and 60000 nM in assay [2] (Homo sapiens, LNCaP, 72 h).
With `CNC(=S)Nc1ccc(-c2nc(N3CCOCC3)c3cnn(C4CCN(Cc5cccnc5)CC4)c3n2)cc1` [Compound 622, 1-methyl-3-(4-{4-morpholin-4-yl-1-[1-(pyridin-3-ylmethyl)piperidin-4-yl]-1H-pyrazolo[3,4-d]pyrimidin-6-yl}phenyl)thiourea], the IC50 in assay [1] (Homo sapiens, 72 h) is 500 nM; in assay [2] (Homo sapiens, LNCaP, 72 h) it was 70 nM.
As to `COC(=O)Nc1ccc(-c2nc(N3CCOCC3)c3cnn(C4CCN(C(=O)OC)CC4)c3n2)cc1` [Compound 739, methyl 4-(6-{4-[(methoxycarbonyl)amino]phenyl}-4-morpholin-4-yl-1H-pyrazolo[3,4-d]pyrimidin-1-yl)piperidine-1-carboxylate], the IC50 in assay [1] (Homo sapiens, 72 h) came out at 1750 nM; in assay [2] (Homo sapiens, LNCaP, 72 h) it was 400 nM.
Take `CC(=O)N(C)c1ccc(-c2nc(N3CCOCC3)c3cnn(-c4ccccc4)c3n2)cc1` [Compound 149, N-methyl-N-[4-(4-morpholin-4-yl-1-phenyl-1H-pyrazolo[3,4-d]pyrimidin-6-yl)phenyl]acetamide]: the IC50 in assay [1] (Homo sapiens, 72 h) turned out to be 40000 nM; in assay [2] (Homo sapiens, LNCaP, 72 h) it was 4500 nM.
Consider `c1ccc(-n2ncc3c(N4CCOCC4)nc(-c4csc5ccccc45)nc32)cc1` [Compound 7], for which the IC50 in assay [1] (Homo sapiens, 72 h) was 38000 nM; in assay [2] (Homo sapiens, LNCaP, 72 h), 20000 nM.
As for `Nc1cccc(-c2nc(N3CCOCC3)c3cnn(-c4ccccc4)c3n2)n1` [Compound 439, 6-(4-morpholin-4-yl-1-phenyl-1H-pyrazolo[3,4-d]pyrimidin-6-yl)pyridin-2-amine], the IC50 in assay [1] (Homo sapiens, 72 h) was 60000 nM; in assay [2] (Homo sapiens, LNCaP, 72 h), 60000 nM.
On to `Nc1cccc(-c2nc(N3CCOCC3)c3cnn(-c4ccccc4)c3n2)n1` [Compound 683, 6-(4-morpholin-4-yl-1-phenyl-1H-pyrazolo[3,4-d]pyrimidin-6-yl)pyridin-2-amine], for which the IC50 in assay [1] and in assay [2] was above 60000 nM throughout.
In the case of `O=CNc1ccc(-c2nc(N3CCOCC3)c3cnn(C4CCN(Cc5ccccc5)CC4)c3n2)cc1` [Compound 231, N-{4-[1-(1-benzylpiperidin-4-yl)-4-morpholin-4-yl-1H-pyrazolo[3,4-d]pyrimidin-6-yl]phenyl}formamide], the concentration for half-maximal inhibition (IC50) is 4500 nM in assay [1] (Homo sapiens, 72 h) and 1400 nM in assay [2] (Homo sapiens, LNCaP, 72 h).
Turning to `Nc1ccc(-c2nc(N3CCOCC3)c3cnn(C4CCN(Cc5ccccc5)CC4)c3n2)cn1` [Compound 155], the IC50 in assay [1] (Homo sapiens, 72 h) amounted to 1000 nM; in assay [2] (Homo sapiens, LNCaP, 72 h) it was 100 nM.
Take `O=C(c1cccnc1)N1CCC(n2ncc3c(N4CCOCC4)nc(-c4ccc5[nH]ccc5c4)nc32)CC1` [Compound 38, 6-(1H-indol-5-yl)-4-morpholin-4-yl-1-[1-(pyridin-3-ylcarbonyl)piperidin-4-yl]-1H-pyrazolo[3,4-d]pyrimidine]: the IC50 in assay [1] (Homo sapiens, 72 h) came to 1100 nM; in assay [2] (Homo sapiens, LNCaP, 72 h), 380 nM.
Regarding `Nc1cccc(-c2nc(N3CCOCC3)c3cnn(C4CCN(Cc5ccccc5)CC4)c3n2)c1` [Example 60], the IC50 in assay [1] (Homo sapiens, 72 h) is 5500 nM; in assay [2] (Homo sapiens, LNCaP, 72 h) it was 2000 nM.
As to `CNC(=S)Nc1ccc(-c2nc(N3CCOCC3)c3cnn(C4CCN(Cc5cccnc5)CC4)c3n2)cc1` [Example 377, 1-methyl-3-(4-{4-morpholin-4-yl-1-[1-(pyridin-3-ylmethyl)piperidin-4-yl]-1H-pyrazolo[3,4-d]pyrimidin-6-yl}phenyl)thiourea], the IC50 was 500 nM in assay [1] (Homo sapiens, 72 h) and 70 nM in assay [2] (Homo sapiens, LNCaP, 72 h).
In the case of `O=C(c1cccnc1)N1CCC(n2ncc3c(N4CCOCC4)nc(-c4cccc(O)c4)nc32)CC1` [Compound 24, 3-{4-morpholin-4-yl-1-[1-(pyridin-3-ylcarbonyl)piperidin-4-yl]-1H-pyrazolo[3,4-d]pyrimidin-6-yl}phenol], the IC50 in assay [1] (Homo sapiens, 72 h) was 700 nM; in assay [2] (Homo sapiens, LNCaP, 72 h), 200 nM.
Take `COC(=O)Nc1ccc(-c2nc(N3CCOCC3)c3cnn(C4CCN(C(=O)OC)CC4)c3n2)cc1` [Compound 740, methyl 4-(6-{4-[(methoxycarbonyl)amino]phenyl}-4-morpholin-4-yl-1H-pyrazolo[3,4-d]pyrimidin-1-yl)piperidine-1-carboxylate]: the IC50 came to 1300 nM in assay [1] (Homo sapiens, 72 h) and 310 nM in assay [2] (Homo sapiens, LNCaP, 72 h).
In the case of `Nc1cccc(-c2nc(N3CCOCC3)c3cnn(-c4ccccc4)c3n2)c1` [Compound 107], the IC50 in assay [1] (Homo sapiens, 72 h) stood at 10000 nM; in assay [2] (Homo sapiens, LNCaP, 72 h) it was 3500 nM.
With `Cn1ncc2c(N3CCC(n4c(=O)[nH]c5ccccc54)CC3)nc(-c3ccccc3)nc21` [Example 12], the IC50 in assay [1] (Homo sapiens, 72 h) was determined as 12000 nM; in assay [2] (Homo sapiens, LNCaP, 72 h), 750 nM.
As for `Oc1ccc(-c2nc(N3CCOCC3)c3cnn(C4CCN(Cc5ccccc5)CC4)c3n2)cn1` [Compound 192], the IC50 in assay [1] (Homo sapiens, 72 h) amounted to 40000 nM; in assay [2] (Homo sapiens, LNCaP, 72 h), 16000 nM.
Consider `COC(=O)Nc1ccc(-c2nc(N3CCOCC3)c3cnn(-c4ccccc4)c3n2)cc1` [Example 101, methyl [4-(4-morpholin-4-yl-1-phenyl-1H-pyrazolo[3,4-d]pyrimidin-6-yl)phenyl]carbamate], for which the IC50 in assay [1] (Homo sapiens, 72 h) amounted to 22000 nM; in assay [2] (Homo sapiens, LNCaP, 72 h), 10000 nM.
As to `COC(=O)N1CCC(n2ncc3c(N4CCOCC4)nc(-c4ccc(NC(=O)Nc5ccc(CO)cc5)cc4)nc32)CC1` [Compound 912, methyl 4-{6-[4-({[4-(hydroxymethyl)phenyl]carbamoyl}amino)phenyl]-4-morpholin-4-yl-1H-pyrazolo[3,4-d]pyrimidin-1-yl}piperidine-1-carboxylate], the IC50 in assay [1] (Homo sapiens, 72 h) was below 0.8 nM; in assay [2] (Homo sapiens, LNCaP, 72 h), below 0.8 nM.
`N#CN=C(N)Nc1ccc(-c2nc(N3CCOCC3)c3cnn(C4CCN(Cc5cccnc5)CC4)c3n2)cc1` [Example 406, 2-cyano-1-(4-{4-morpholin-4-yl-1-[1-(pyridin-3-ylmethyl)piperidin-4-yl]-1H-pyrazolo[3,4-d]pyrimidin-6-yl}phenyl)guanidine]: the half-inhibitory concentration (IC50) in assay [1] (Homo sapiens, 72 h) was determined as 1100 nM; in assay [2] (Homo sapiens, LNCaP, 72 h) it was 1400 nM.
Regarding `Nc1ccc(-c2nc(N3CCOCC3)c3cnn(-c4ccccc4)c3n2)cn1` [Example 129, 5-(4-morpholin-4-yl-1-phenyl-1H-pyrazolo[3,4-d]pyrimidin-6-yl)pyridin-2-amine], the IC50 in assay [1] (Homo sapiens, 72 h) is 1300 nM; in assay [2] (Homo sapiens, LNCaP, 72 h), 410 nM.
For the compound `Nc1ccc(-c2nc(N3CCOCC3)c3cnn(-c4ccccc4)c3n2)cc1` [Compound 106, 4-(4-morpholin-4-yl-1-phenyl-1H-pyrazolo[3,4-d]pyrimidin-6-yl)aniline4-(4-morpholin-4-yl-1-phenyl-1H-pyrazolo[3,4-d]pyrimidin-6-yl)aniline], the IC50 in assay [1] (Homo sapiens, 72 h) amounted to 11000 nM; in assay [2] (Homo sapiens, LNCaP, 72 h), 3000 nM.
With `Nc1ccc(-c2nc(N3CCOCC3)c3cnn(C4CCN(Cc5ccccc5)CC4)c3n2)cc1` [Compound 79], the IC50 worked out at 10000 nM in assay [1] (Homo sapiens, 72 h) and 4500 nM in assay [2] (Homo sapiens, LNCaP, 72 h).
For `O=CNc1cccc(-c2nc(N3CCOCC3)c3cnn(C4CCN(Cc5ccccc5)CC4)c3n2)c1` [Example 77], the IC50 in assay [1] (Homo sapiens, 72 h) worked out at 9000 nM; in assay [2] (Homo sapiens, LNCaP, 72 h), 5100 nM.
Turning to `Oc1cccc(-c2nc(N3CCOCC3)c3cnn(C4CCN(Cc5ccccc5)CC4)c3n2)c1` [Compound 8], the half-inhibitory concentration (IC50) in assay [1] (Homo sapiens, 72 h) amounted to 1900 nM; in assay [2] (Homo sapiens, LNCaP, 72 h), 220 nM.
Take `NCC(=O)Nc1ccc(-c2nc(N3CCOCC3)c3cnn(-c4ccccc4)c3n2)cc1` [Compound 136]: the IC50 in assay [1] (Homo sapiens, 72 h) is 400 nM; in assay [2] (Homo sapiens, LNCaP, 72 h) it was 1000 nM.
The like results for `CN(C)CC(=O)Nc1ccc(-c2nc(N3CCOCC3)c3cnn(-c4ccccc4)c3n2)cc1` [Compound 135] were, in that order, 1200 nM and 3400 nM.
For `COCCC(=O)Nc1ccc(-c2nc(N3CCOCC3)c3cnn(-c4ccccc4)c3n2)cc1` [Compound 138], the IC50 in assay [1] (Homo sapiens, 72 h) stood at 6500 nM; in assay [2] (Homo sapiens, LNCaP, 72 h) it was 4900 nM.
Consider `Nc1ncc(-c2nc(N3CCOCC3)c3cnn(C4CCN(Cc5ccccc5)CC4)c3n2)cn1` [Compound 191], for which the IC50 in assay [1] (Homo sapiens, 72 h) was found to be 400 nM; in assay [2] (Homo sapiens, LNCaP, 72 h) it was 80 nM.
The like results for `CN(C)C(=O)c1ccc(-c2nc(N3CCOCC3)c3cnn(C4CCN(Cc5ccccc5)CC4)c3n2)cc1` [Example 71] were, in that order, 13000 nM and 10000 nM.
The like results for `O=C(c1ccccc1)N1CCC(n2ncc3c(N4CCOCC4)nc(-c4cccc(O)c4)nc32)CC1` [Compound 25, 3-[1-(1-benzoylpiperidin-4-yl)-4-morpholin-4-yl-1H-pyrazolo[3,4-d]pyrimidin-6-yl]phenol] were, in that order, 700 nM and 140 nM.
As for `NCCC(=O)Nc1ccc(-c2nc(N3CCOCC3)c3cnn(-c4ccccc4)c3n2)cc1` [Compound 134], the IC50 in assay [1] (Homo sapiens, 72 h) worked out at 1300 nM; in assay [2] (Homo sapiens, LNCaP, 72 h) it was 1200 nM.
On to `CC(=O)Nc1ccc(-c2nc(N3CCOCC3)c3cnn(C4CCN(Cc5ccccc5)CC4)c3n2)cc1` [Example 80, N-{4-[1-(1-benzylpiperidin-4-yl)-4-morpholin-4-yl-1H-pyrazolo[3,4-d]pyrimidin-6-yl]phenyl}acetamide], for which the IC50 amounted to 2300 nM in assay [1] (Homo sapiens, 72 h) and 450 nM in assay [2] (Homo sapiens, LNCaP, 72 h).
Turning to `CN1CCC(C(=O)Nc2ccc(-c3nc(N4CCOCC4)c4cnn(-c5ccccc5)c4n3)cc2)CC1` [Compound 141], the IC50 in assay [1] (Homo sapiens, 72 h) was found to be 3800 nM; in assay [2] (Homo sapiens, LNCaP, 72 h), 3000 nM.
In the case of `c1cc2cc(-c3nc(N4CCOCC4)c4cnn([C@H]5CCCNC5)c4n3)ccc2[nH]1` [Compound 170, 6-(1H-indol-5-yl)-4-morpholin-4-yl-1-[(3S)-piperidin-3-yl]-1H-pyrazolo[3,4-d]pyrimidine], the IC50 in assay [1] (Homo sapiens, 72 h) turned out to be 12000 nM; in assay [2] (Homo sapiens, LNCaP, 72 h), 3300 nM.
Regarding `CNS(=O)(=O)Nc1ccc(-c2nc(N3CCOCC3)c3cnn(C4CCN(C(=O)OC(C)(C)C)CC4)c3n2)cc1` [Compound 951, tert-butyl 4-(6-{4-[(methylsulfamoyl)amino]phenyl}-4-morpholin-4-yl-1H-pyrazolo[3,4-d]pyrimidin-1-yl)piperidine-1-carboxylate], the IC50 in assay [1] (Homo sapiens, 72 h) was 7800 nM; in assay [2] (Homo sapiens, LNCaP, 72 h) it was 4000 nM.
